# Measurements reported in patent US11400081B2, “Compounds” (The University of Sheffield, priority 2017, dated 2022).
# Target: T1, AM2 receptor (CALCRL+RAMP3) (Homo sapiens, UniProt O60896+Q16602)
# T1 construct: host or cells: 1321N1
# Test: AM2 receptor inhibition, LANCE TR-FRET cAMP agonist-antagonist competition assay
# Assay type: cell-based
# Conditions: inhibition of AM induced cAMP activation; 1321N1 cells transfected with CALCRL+RAMP3; read-out: AM2 pIC50 (converted)
# T1 sequence (Q16602 23-461): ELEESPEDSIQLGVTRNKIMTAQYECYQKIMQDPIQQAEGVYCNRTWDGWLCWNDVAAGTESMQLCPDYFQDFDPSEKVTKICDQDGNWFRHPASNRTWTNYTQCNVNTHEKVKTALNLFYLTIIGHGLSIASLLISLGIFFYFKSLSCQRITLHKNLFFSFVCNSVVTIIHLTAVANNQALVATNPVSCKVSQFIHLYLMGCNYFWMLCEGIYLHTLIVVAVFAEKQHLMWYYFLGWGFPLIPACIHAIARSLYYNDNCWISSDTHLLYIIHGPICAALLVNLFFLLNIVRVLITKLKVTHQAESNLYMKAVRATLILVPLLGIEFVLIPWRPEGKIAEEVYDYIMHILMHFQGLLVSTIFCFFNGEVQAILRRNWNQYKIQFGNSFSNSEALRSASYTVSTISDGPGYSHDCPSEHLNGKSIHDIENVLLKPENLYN
# T1 sequence (O60896 24-148): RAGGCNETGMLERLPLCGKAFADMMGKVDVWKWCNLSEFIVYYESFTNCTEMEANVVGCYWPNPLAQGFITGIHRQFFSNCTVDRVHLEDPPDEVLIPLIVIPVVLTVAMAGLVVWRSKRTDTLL
row,IC50,SMILES
1,18.2 nM,"CNCc1ccccc1CN(C(=O)C(C)(C)C)[C@H](C)C(=O)Nc1ccc2c(c1)CC1(C2)C(=O)Nc2ncccc21 (stereo partly drawn) [Example 35, N-(2-((Methylamino)methyl)benzyl)-N-((2R)-1-oxo-1-((2′-oxo-1,1′,2′,3-tetrahydrospiro[indene-2,3′-pyrrolo[2,3-b]pyridin]-5-yl)amino)propan-2-yl)pivalamide]"
2,9.77 nM,"CNCc1cc(F)ccc1CN(CC(=O)Nc1ccc2c(c1)CC1(C2)C(=O)Nc2ncccc21)C(=O)C(C)(C)C (stereo not shown) [Example 55, N-(4-Fluoro-2-((methylamino)methyl)benzyl)-N-(2-oxo-2-((2′-oxo-1,1′,2′,3-tetrahydrospiro[indene-2,3′-pyrrolo[2,3-b]pyridin]-5-yl)amino)ethyl)pivalamide]"
3,29.5 nM,"CN(C)Cc1ccccc1CN(CC(=O)Nc1ccc2c(c1)CC1(C2)C(=O)Nc2ncccc21)C(=O)C(C)(C)C (stereo not shown) [Example 30, N-(2-((Dimethylamino)methyl)benzyl)-N-(2-oxo-2-((2′-oxo-1,1′,2′,3-tetrahydrospiro[indene-2,3′-pyrrolo[2,3-b]pyridin]-5-yl)amino)ethyl)pivalamide]"
4,100 nM,"CC(C)(C)C(=O)N(CC(=O)Nc1ccc2c(c1)CC1(C2)C(=O)Nc2ncccc21)Cc1ccccc1C(=N)NO (stereo not shown) [Example 41, N-(2-(N-Hydroxycarbamimidoyl)benzyl)-N-(2-oxo-2-((2′-oxo-1,1′,2′,3-tetrahydrospiro[indene-2,3′-pyrrolo[2,3-b]pyridin]-5-yl)amino)ethyl)pivalamide]"
5,105 nM,"CC(C)(C)C(=O)N(CC(=O)Nc1ccc2c(c1)CC1(C2)C(=O)Nc2ncccc21)Cc1ccccc1CNC1CCC1 (stereo not shown) [Example 20, N-(2-((Cyclobutylamino)methyl)benzyl)-N-(2-oxo-2-((2′-oxo-1,1′,2′,3-tetrahydrospiro[indene-2,3′-pyrrolo[2,3-b]pyridin]-5-yl)amino)ethyl)pivalamide]"
6,3.55 nM,"CNCc1ccc(F)cc1CN(CC(=O)Nc1ccc2c(c1)CC1(C2)C(=O)Nc2ncccc21)C(=O)C(C)(C)C (stereo not shown) [Example 54, N-(5-Fluoro-2-((methylamino)methyl)benzyl)-N-(2-oxo-2-((2′-oxo-1,1′,2′,3-tetrahydrospiro[indene-2,3′-pyrrolo[2,3-b]pyridin]-5-yl)amino)ethyl)pivalamide]"
7,324 nM,"CC(C)(C)C(=O)N(CC(=O)Nc1ccc2c(c1)CC1(C2)C(=O)Nc2ncccc21)Cc1ccccc1CNCC(F)F (stereo not shown) [Example 3, N-(2-(((2,2-Difluoroethyl)amino)methyl)benzyl)-N-(2-oxo-2-((2′-oxo-1,1′,2′,3-tetrahydrospiro[indene-2,3′-pyrrolo[2,3-b]pyridine]-5-yl)amino)ethyl)pivalamide]"
8,93.3 nM,"CNCc1c(F)cccc1CN(CC(=O)Nc1ccc2c(c1)CC1(C2)C(=O)Nc2ncccc21)C(=O)C(C)(C)C (stereo not shown) [Example 36, N-(3-fluoro-2-((methylamino)methyl)benzyl)-N-(2-oxo-2-((2′-oxo-1,1′,2′,3-tetrahydrospiro[indene-2,3′-pyrrolo[2,3-b]pyridin]-5-yl)amino)ethyl)pivalamide]"
9,34.7 nM,"CC(c1ccccc1CN(CC(=O)Nc1ccc2c(c1)CC1(C2)C(=O)Nc2ncccc21)C(=O)C(C)(C)C)N(C)C (stereo not shown) [Example 24, N-(2-(1-(Dimethylamino)ethyl)benzyl)-N-(2-oxo-2-((2′-oxo-1,1′,2′,3-tetrahydrospiro[indene-2,3′-pyrrolo[2,3-b]pyridin]-5-yl)amino)ethyl)pivalamide]"
10,30.2 nM,"CCNCc1ccccc1CN(CC(=O)Nc1ccc2c(c1)CC1(C2)C(=O)Nc2ncccc21)C(=O)C(C)(C)C (stereo not shown) [Example 27, N-(2-((Ethylamino)methyl)benzyl)-N-(2-oxo-2-((2′-oxo-1,1′,2′,3-tetrahydrospiro[indene-2,3′-pyrrolo[2,3-b]pyridin]-5-yl)amino)ethyl)pivalamide]"

# The remaining lines, values behind:
row,SMILES,IC50
1,"O=C(CN(Cc1ccccc1CN1CCC1)C(=O)C1CC1)Nc1ccc2c(c1)CC1(C2)C(=O)Nc2ncccc21 (stereo not shown) [Example 49, N-(2-(Azetidin-1-ylmethyl)benzyl)-N-(2-oxo-2-((2′-oxo-1,1′,2′,3-tetrahydrospiro[indene-2,3′-pyrrolo[2,3-b]pyridin]-5-yl)amino)ethyl)cyclopropanecarboxamide]",10.2 nM
2,"CNCc1ccccc1CN(CC(=O)Nc1ccc2c(c1)CC1(C2)C(=O)Nc2ncccc21)C(=O)NC1CCCC1 (stereo not shown) [Example 83, 2-(3-Cyclopentyl-1-(2-((methylamino)methyl)benzyl)ureido)-N-(2′-oxo-1,1′,2′,3-tetrahydrospiro[indene-2,3′-pyrrolo[2,3-b]pyridin]-5-yl)acetamide]",42.7 nM
3,"CNCc1ccccc1CN(CC(=O)Nc1ccc2c(c1)CC1(C2)C(=O)Nc2ncccc21)C(=O)C1CCCO1 (stereo not shown) [Example 63, N-(2-((Methylamino)methyl)benzyl)-N-(2-oxo-2-((2′-oxo-1,1′,2′,3-tetrahydrospiro[indene-2,3′-pyrrolo[2,3-b]pyridin]-5-yl)amino)ethyl)tetrahydrofuran-2-carboxamide]",53.7 nM
4,"C=CCN(CC=C)CCc1ccccc1CN(CC(=O)Nc1ccc2c(c1)CC1(C2)C(=O)Nc2ncccc21)C(=O)C(C)(C)C (stereo not shown) [Example 28, N-(2-(2-(Diallylamino)ethyl)benzyl)-N-(2-oxo-2-((2′-oxo-1,1′,2′,3-tetrahydrospiro[indene-2,3′-pyrrolo[2,3-b]pyridin]-5-yl)amino)ethyl)pivalamide]",490 nM
5,"CNCc1ccccc1CN(CC(=O)Nc1ccc2c(c1)CC1(C2)C(=O)Nc2ncccc21)C(=O)C12CC(C1)C2 (stereo not shown) [Example 78, N-(2-((methylamino)methyl)benzyl)-N-(2-oxo-2-((2′-oxo-1,1′,2′,3-tetrahydrospiro[indene-2,3′-pyrrolo[2,3-b]pyridin]-5-yl)amino)ethyl)bicyclo[1.1.1]pentane-1-carboxamide 2,2,2-trifluoroacetate]",5.5 nM
6,"Cc1cc2c(cc1NC(=O)CN(Cc1ccccc1CN)C(=O)C(C)(C)C)CC1(C2)C(=O)Nc2ncccc21 (stereo not shown) [Example 39, N-(2-(Aminomethyl)benzyl)-N-(2-((5-methyl-2′-oxo-1,1′,2,3-tetrahydrospiro[indene-2,3′-pyrrolo[2,3-b]pyridin]-6-yl)amino)-2-oxoethyl)pivalamide]",15.5 nM
7,"CC(C)(C)C(=O)N(CC(=O)Nc1ccc2c(c1)CC1(C2)C(=O)Nc2ncccc21)Cc1ccccc1CNCc1ncc[nH]1 (stereo not shown) [Example 9, N-(2-((((1H-Imidazol-2-yl)methyl)amino)methyl)benzyl)-N-(2-oxo-2-((2′-oxo-1,1′,2′,3-tetrahydrospiro[indene-2,3′-pyrrolo[2,3-b]pyridine]-5-yl)amino)ethyl)pivalamide]",240 nM
8,"CNCc1ccccc1CN(CC(=O)Nc1ccc2c(c1)CC1(C2)C(=O)Nc2ncccc21)C(=O)C1CCN(C(=O)CN)CC1 (stereo not shown) [Example 70, 1-(2-aminoacetyl)-N-(2-((methylamino)methyl)benzyl)-N-(2-oxo-2-((2′-oxo-1,1′,2′,3-tetrahydrospiro[indene-2,3′-pyrrolo[2,3-b]pyridin]-5-yl)amino)ethyl)piperidine-4-carboxamide bis(2,2,2-trifluoroacetate)]",44.7 nM
9,"CNCc1ccccc1CN(CC(=O)Nc1ccc2c(c1)CC1(C2)C(=O)Nc2ncccc21)C(=O)c1csc(C)n1 (stereo not shown) [Example 61, 2-Methyl-N-(2-((methylamino)methyl)benzyl)-N-(2-oxo-2-((2′-oxo-1,1′,2′,3-tetrahydrospiro[indene-2,3′-pyrrolo[2,3-b]pyridin]-5-yl)amino)ethyl)thiazole-4-carboxamide]",219 nM
